From PubChem BioAssay (NCI)
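Each compound was tested at five concentrations against cells in 96-well plates for 48 hours. GI50 = concentration required for 50% inhibition of growth. TGI marks complete inhibition of growth.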

Columns and labels:
Assay in all cases: NCI anticancer screen, dose series, 48 h
HCT-116 colon = test system: HCT-116 colon
HOP-92 NSCLC = test system: HOP-92 NSCLC
OVCAR-8 ovarian = test system: OVCAR-8 ovarian
HCC-2998 colon = test system: HCC-2998 colon
CCRF-CEM leukemia = test system: CCRF-CEM leukemia
EKVX NSCLC = test system: EKVX NSCLC
NCI-H226 lung = test system: NCI-H226 lung
OVCAR-3 ovarian = test system: OVCAR-3 ovarian
MOLT-4 leukemia = test system: MOLT-4 leukemia
BT-549 breast = test system: BT-549 breast
DU-145 prostate = test system: DU-145 prostate
MCF7 breast = test system: MCF7 breast
UACC-257 melanoma = test system: UACC-257 melanoma
UACC-62 melanoma = test system: UACC-62 melanoma
MALME-3M melanoma = test system: MALME-3M melanoma
K-562 leukemia = test system: K-562 leukemia
ACHN renal = test system: ACHN renal
T-47D breast = test system: T-47D breast
SR leukemia = test system: SR leukemia
PC-3 prostate = test system: PC-3 prostate
A549 NSCLC = test system: A549 NSCLC
U251 CNS = test system: U251 CNS
786-0 renal = test system: 786-0 renal
HL-60(TB) leukemia = test system: HL-60(TB) leukemia
SK-OV-3 ovarian = test system: SK-OV-3 ovarian
M14 melanoma = test system: M14 melanoma
A498 renal = test system: A498 renal
NCI/ADR-RES ovarian = test system: NCI/ADR-RES ovarian
CAKI-1 renal = test system: CAKI-1 renal
NCI-H23 lung = test system: NCI-H23 lung
IGROV1 ovarian = test system: IGROV1 ovarian
OVCAR-4 ovarian = test system: OVCAR-4 ovarian
HT29 colon = test system: HT29 colon
MDA-MB-435 = test system: MDA-MB-435
UO-31 renal = test system: UO-31 renal
NCI-H460 lung = test system: NCI-H460 lung
SN12C renal = test system: SN12C renal
COLO 205 colon = test system: COLO 205 colon
SF-539 CNS = test system: SF-539 CNS
RXF 393 renal = test system: RXF 393 renal
OVCAR-5 ovarian = test system: OVCAR-5 ovarian
SF-268 CNS = test system: SF-268 CNS
SK-MEL-28 melanoma = test system: SK-MEL-28 melanoma
HCT-15 colon = test system: HCT-15 colon
SF-295 CNS = test system: SF-295 CNS
SW-620 colon = test system: SW-620 colon
SK-MEL-5 melanoma = test system: SK-MEL-5 melanoma
TK-10 renal = test system: TK-10 renal
KM12 colon = test system: KM12 colon
HOP-62 NSCLC = test system: HOP-62 NSCLC
NCI-H522 lung = test system: NCI-H522 lung
RPMI-8226 leukemia = test system: RPMI-8226 leukemia
SNB-19 CNS = test system: SNB-19 CNS
HS 578T breast = test system: HS 578T breast
MDA-MB-231 breast = test system: MDA-MB-231 breast
LOX IMVI melanoma = test system: LOX IMVI melanoma
SK-MEL-2 melanoma = test system: SK-MEL-2 melanoma
SNB-75 CNS = test system: SNB-75 CNS

Work on `COC1OC(C)C(NC(=O)OCC(Cl)(Cl)Cl)C2OC(C)(C)OC12` (stereo not given) yielded a TGI (HCT-116 colon) greater than 100000 nM, a TGI (HOP-92 NSCLC) greater than 100000 nM and a TGI (OVCAR-8 ovarian) greater than 100000 nM. The TGI (HCC-2998 colon) was greater than 100000 nM, the TGI (CCRF-CEM leukemia) was greater than 100000 nM and the TGI (EKVX NSCLC) was greater than 100000 nM. It also gave a TGI (NCI-H226 lung) greater than 100000 nM, a TGI (OVCAR-3 ovarian) greater than 100000 nM and a TGI (MOLT-4 leukemia) greater than 100000 nM. It also gave a TGI (BT-549 breast) greater than 100000 nM, a TGI (DU-145 prostate) greater than 100000 nM and a TGI (MCF7 breast) greater than 100000 nM. It also gave a TGI (UACC-257 melanoma) greater than 100000 nM, a TGI (UACC-62 melanoma) greater than 100000 nM and a TGI (MALME-3M melanoma) greater than 100000 nM. It also gave a TGI (K-562 leukemia) greater than 100000 nM, a TGI (ACHN renal) greater than 100000 nM and a TGI (T-47D breast) greater than 100000 nM. It also gave a TGI (SR leukemia) greater than 100000 nM, a TGI (PC-3 prostate) greater than 100000 nM and a TGI (A549 NSCLC) greater than 100000 nM. For the same molecule, the TGI (U251 CNS) was greater than 100000 nM, the TGI (786-0 renal) was greater than 100000 nM and the TGI (HL-60(TB) leukemia) was greater than 100000 nM. For the same molecule, the TGI (SK-OV-3 ovarian) was greater than 100000 nM, the TGI (M14 melanoma) was greater than 100000 nM and the TGI (A498 renal) was greater than 100000 nM. The TGI (NCI/ADR-RES ovarian) was greater than 100000 nM, the TGI (CAKI-1 renal) was greater than 100000 nM and the TGI (NCI-H23 lung) was greater than 100000 nM. It also gave a TGI (IGROV1 ovarian) greater than 100000 nM, a TGI (OVCAR-4 ovarian) greater than 100000 nM and a TGI (HT29 colon) greater than 100000 nM. It also gave a TGI (MDA-MB-435) greater than 100000 nM, a TGI (UO-31 renal) greater than 100000 nM and a TGI (NCI-H460 lung) greater than 100000 nM. It also gave a TGI (SN12C renal) greater than 100000 nM, a TGI (COLO 205 colon) greater than 100000 nM and a TGI (SF-539 CNS) greater than 100000 nM. It also gave a TGI (RXF 393 renal) greater than 100000 nM, a TGI (OVCAR-5 ovarian) greater than 100000 nM and a TGI (SF-268 CNS) greater than 100000 nM. The TGI (SK-MEL-28 melanoma) was greater than 100000 nM, the TGI (HCT-15 colon) was greater than 100000 nM and the TGI (SF-295 CNS) was greater than 100000 nM. It also gave a TGI (SW-620 colon) greater than 100000 nM, a TGI (SK-MEL-5 melanoma) greater than 100000 nM and a TGI (TK-10 renal) greater than 100000 nM. It also gave a TGI (KM12 colon) greater than 100000 nM, a TGI (HOP-62 NSCLC) greater than 100000 nM and a TGI (NCI-H522 lung) greater than 100000 nM. For the same molecule, the TGI (RPMI-8226 leukemia) was greater than 100000 nM, the TGI (SNB-19 CNS) was greater than 100000 nM and the TGI (HS 578T breast) was greater than 100000 nM. It also gave a TGI (MDA-MB-231 breast) greater than 100000 nM.
With `CCN(CC)CCCNc1ccc(C)c2sc3ccccc3c(=O)c12` the GI50 (HCT-116 colon) was 407 nM, the TGI (HCT-116 colon) was 1590 nM and the GI50 (HOP-92 NSCLC) was 1960 nM. For the same molecule, the TGI (HOP-92 NSCLC) was 16200 nM, the GI50 (OVCAR-8 ovarian) was 1410 nM and the TGI (OVCAR-8 ovarian) was 3260 nM. It also gave a GI50 (HCC-2998 colon) of 488 nM, a TGI (HCC-2998 colon) of 1770 nM and a GI50 (CCRF-CEM leukemia) of 960 nM. The TGI (CCRF-CEM leukemia) was 2820 nM, the GI50 (EKVX NSCLC) was 2160 nM and the TGI (EKVX NSCLC) was 7650 nM. The GI50 (OVCAR-3 ovarian) was 3420 nM, the TGI (OVCAR-3 ovarian) was 16200 nM and the GI50 (MOLT-4 leukemia) was 384 nM. For the same molecule, the TGI (MOLT-4 leukemia) was 1350 nM, the GI50 (BT-549 breast) was 1830 nM and the TGI (BT-549 breast) was 11100 nM. It also gave a GI50 (DU-145 prostate) of 1040 nM, a TGI (DU-145 prostate) of 2440 nM and a GI50 (MCF7 breast) of 277 nM. The TGI (MCF7 breast) was 1050 nM, the GI50 (UACC-257 melanoma) was 230 nM and the TGI (UACC-257 melanoma) was 540 nM. The GI50 (UACC-62 melanoma) was 205 nM, the TGI (UACC-62 melanoma) was 420 nM and the GI50 (MALME-3M melanoma) was 193 nM. The TGI (MALME-3M melanoma) was 402 nM, the GI50 (ACHN renal) was 869 nM and the TGI (ACHN renal) was 2310 nM. For the same molecule, the GI50 (T-47D breast) was 492 nM, the TGI (T-47D breast) was 2550 nM and the GI50 (SR leukemia) was 268 nM. The TGI (SR leukemia) was 988 nM, the GI50 (PC-3 prostate) was 758 nM and the TGI (PC-3 prostate) was 2570 nM. It also gave a GI50 (A549 NSCLC) of 554 nM, a TGI (A549 NSCLC) of 1990 nM and a GI50 (U251 CNS) of 602 nM. For the same molecule, the TGI (U251 CNS) was 1960 nM, the GI50 (786-0 renal) was 822 nM and the TGI (786-0 renal) was 2180 nM. For the same molecule, the GI50 (HL-60(TB) leukemia) was 1710 nM, the TGI (HL-60(TB) leukemia) was 3630 nM and the GI50 (SK-OV-3 ovarian) was 1510 nM. It also gave a TGI (SK-OV-3 ovarian) of 4820 nM, a GI50 (M14 melanoma) of 193 nM and a TGI (M14 melanoma) of 401 nM. For the same molecule, the GI50 (LOX IMVI melanoma) was 423 nM, the TGI (LOX IMVI melanoma) was 1580 nM and the GI50 (NCI/ADR-RES ovarian) was 1400 nM. The TGI (NCI/ADR-RES ovarian) was 4480 nM, the GI50 (CAKI-1 renal) was 1290 nM and the TGI (CAKI-1 renal) was 3060 nM. For the same molecule, the GI50 (NCI-H23 lung) was 1750 nM, the TGI (NCI-H23 lung) was 5040 nM and the GI50 (IGROV1 ovarian) was 1220 nM. For the same molecule, the TGI (IGROV1 ovarian) was 2920 nM, the GI50 (OVCAR-4 ovarian) was 2120 nM and the TGI (OVCAR-4 ovarian) was 33000 nM. It also gave a GI50 (HT29 colon) of 279 nM, a TGI (HT29 colon) of 1090 nM and a GI50 (MDA-MB-435) of 210 nM. The TGI (MDA-MB-435) was 451 nM, the GI50 (UO-31 renal) was 514 nM and the TGI (UO-31 renal) was 2070 nM. For the same molecule, the GI50 (NCI-H460 lung) was 460 nM, the TGI (NCI-H460 lung) was 1710 nM and the GI50 (SN12C renal) was 1090 nM. It also gave a TGI (SN12C renal) of 7510 nM, a GI50 (COLO 205 colon) of 189 nM and a TGI (COLO 205 colon) of 384 nM. The GI50 (SF-539 CNS) was 1300 nM, the TGI (SF-539 CNS) was 2810 nM and the GI50 (SK-MEL-2 melanoma) was 1660 nM. The TGI (SK-MEL-2 melanoma) was 3450 nM, the GI50 (RXF 393 renal) was 446 nM and the TGI (RXF 393 renal) was 1760 nM. The GI50 (OVCAR-5 ovarian) was 1260 nM, the TGI (OVCAR-5 ovarian) was 2760 nM and the GI50 (SF-268 CNS) was 1310 nM. For the same molecule, the TGI (SF-268 CNS) was 3740 nM, the GI50 (SK-MEL-28 melanoma) was 201 nM and the TGI (SK-MEL-28 melanoma) was 435 nM. For the same molecule, the GI50 (HCT-15 colon) was 248 nM, the TGI (HCT-15 colon) was 651 nM and the GI50 (SF-295 CNS) was 808 nM. For the same molecule, the TGI (SF-295 CNS) was 2220 nM, the GI50 (SNB-75 CNS) was 5200 nM and the TGI (SNB-75 CNS) was 26100 nM. It also gave a GI50 (SW-620 colon) of 393 nM, a TGI (SW-620 colon) of 1510 nM and a GI50 (SK-MEL-5 melanoma) of 187 nM. The TGI (SK-MEL-5 melanoma) was 343 nM, the GI50 (TK-10 renal) was 1370 nM and the TGI (TK-10 renal) was 2760 nM. The GI50 (KM12 colon) was 1110 nM, the TGI (KM12 colon) was 2740 nM and the GI50 (HOP-62 NSCLC) was 1140 nM. For the same molecule, the TGI (HOP-62 NSCLC) was 2550 nM, the GI50 (NCI-H522 lung) was 3080 nM and the TGI (NCI-H522 lung) was 15900 nM. It also gave a GI50 (RPMI-8226 leukemia) of 330 nM, a TGI (RPMI-8226 leukemia) of 1340 nM and a GI50 (SNB-19 CNS) of 1030 nM. The TGI (SNB-19 CNS) was 2710 nM, the GI50 (HS 578T breast) was 1490 nM and the TGI (HS 578T breast) was 5700 nM. It also gave a GI50 (MDA-MB-231 breast) of 294 nM and a TGI (MDA-MB-231 breast) of 863 nM.
